Here are results for 22 molecules from US20230302150A1, “ANTIBODY-TLR AGONIST CONJUGATES, METHODS AND USES THEREOF” (Ambrx, Inc., priority 2020, published 2023).

Like-named read-outs stand apart in the source and are kept apart here.

This assay has as its target T1, hTLR7 (Homo sapiens, UniProt Q9NYK1).
T1 construct: expressed in transfected cells; host or cells: HEK-Blue hTLR7 reporter cell line
T1 sequence (Q9NYK1 27-1049): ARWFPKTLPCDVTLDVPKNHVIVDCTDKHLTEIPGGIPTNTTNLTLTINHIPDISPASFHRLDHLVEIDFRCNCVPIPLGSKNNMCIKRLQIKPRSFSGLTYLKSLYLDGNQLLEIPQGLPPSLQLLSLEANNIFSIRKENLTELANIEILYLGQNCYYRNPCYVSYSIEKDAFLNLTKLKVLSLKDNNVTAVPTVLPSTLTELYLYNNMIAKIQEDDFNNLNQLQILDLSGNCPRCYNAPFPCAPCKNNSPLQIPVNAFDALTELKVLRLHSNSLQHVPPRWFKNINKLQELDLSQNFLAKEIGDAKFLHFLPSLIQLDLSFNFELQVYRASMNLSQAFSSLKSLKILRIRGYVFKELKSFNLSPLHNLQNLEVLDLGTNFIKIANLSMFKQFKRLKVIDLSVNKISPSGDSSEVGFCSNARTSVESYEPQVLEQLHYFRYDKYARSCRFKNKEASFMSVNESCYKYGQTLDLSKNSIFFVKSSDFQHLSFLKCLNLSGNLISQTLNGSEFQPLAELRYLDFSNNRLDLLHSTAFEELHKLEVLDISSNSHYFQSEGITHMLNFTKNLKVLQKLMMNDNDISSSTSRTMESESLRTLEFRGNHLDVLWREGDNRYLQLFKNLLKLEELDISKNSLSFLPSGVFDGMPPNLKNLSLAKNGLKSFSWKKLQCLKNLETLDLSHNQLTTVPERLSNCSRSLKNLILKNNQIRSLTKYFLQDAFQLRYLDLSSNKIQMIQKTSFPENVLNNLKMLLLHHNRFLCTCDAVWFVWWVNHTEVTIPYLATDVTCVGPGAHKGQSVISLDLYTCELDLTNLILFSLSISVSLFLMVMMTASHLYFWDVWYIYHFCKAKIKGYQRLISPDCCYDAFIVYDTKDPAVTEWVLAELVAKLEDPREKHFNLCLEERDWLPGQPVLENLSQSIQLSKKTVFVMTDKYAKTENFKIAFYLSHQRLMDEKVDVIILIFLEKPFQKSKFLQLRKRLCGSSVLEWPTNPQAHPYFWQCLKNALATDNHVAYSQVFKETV
Put plainly: HEK-Blue hTLR7 reporter assay (NF-kB-induced SEAP, Quanti-Blue). The class given is cell-based. The method, then:
HEK-Blue™ hTLR7 cells were incubated in HEK-Blue™ Detection medium and stimulated with increasing concentrations of TLR7 or TLR8 or TLR7/8 agonists. […] The EC50 was determined from dose-response curve using Prism Software.

Setting [1] is: Table 12, TLR7 agonists attached to a linker, read-out: TLR Agonist Payload + Linkers EC50.
[2] abbreviates: Table 11, TLR7 activities, read-out: EC50.
Where [3] appears, read: Table 18, TLR7, PEG shielding, read-out: EC50.

`CCCCOc1nc(N)c2[nH]c(=O)n(Cc3ccc(CNCCCCCCNC(=O)CON)cc3)c2n1` [AXC-882, N-(6-(4-((6-amino-2-butoxy-8-oxo-7H-purin-9(8H)-yl)methyl)benzylamino)hexyl)-2-(aminooxy)acetamide]: the EC50 under setting [1] came to 0.551 µM; the EC50 (Table 15, drug linker, read-out: TLR Agonist + Linker (DL) - EC50) came out at 0.551 µM; the EC50 (Table 15, pAF containing final metabolite, read-out: TLR Agonist + Linker + nnAA (DL-pAF) - EC50) stood at 0.343 µM. For `CCCCOc1nc(N)c2[nH]c(=O)n(Cc3ccc(CN4CCC(CCNC(=O)C(C)(C)NC)CC4)cc3)c2n1` [AXC-884, N-(2-(1-(4-((6-amino-2-butoxy-8-oxo-7H-purin-9(8H)-yl)methyl)benzyl)piperidin-4-yl)ethyl)-2-methyl-2-(methylamino)propanamide], under setting [2], the EC50 stood at 0.0713 µM. Same read-out and setting: next, `CCCCOc1nc(N)c2[nH]c(=O)n(Cc3ccc(CN4CCC(CCNC(=O)C(C)(C)C)CC4)cc3)c2n1` [AXC-885, N-(2-(1-(4-((6-amino-2-butoxy-8-oxo-7H-purin-9(8H)-yl)methyl)benzyl)piperidin-4-yl)ethyl)pivalamide]: 0.0113 µM; `CCCCOc1nc(N)c2[nH]c(=O)n(Cc3ccc(CN4CCC(CCNC(C)=O)CC4)cc3)c2n1` [AXC-886, N-(2-(1-(4-((6-amino-2-butoxy-8-oxo-7H-purin-9(8H)-yl)methyl)benzyl)piperidin-4-yl)ethyl)acetamide]: 0.0167 µM; `CCCCOc1nc(N)c2[nH]c(=O)n(Cc3ccc(CN4CCC(CCNC(=O)CCC(N)CCC(=O)NCCC5CCN(Cc6ccc(Cn7c(=O)[nH]c8c(N)nc(OCCCC)nc87)cc6)CC5)CC4)cc3)c2n1` [AXC-888, 4-amino-N1,N7-bis(2-(1-(4-((6-amino-2-butoxy-8-oxo-7H-purin-9(8H)-yl)methyl)benzyl)piperidin-4-yl)ethyl)heptanediamide]: 0.468 µM.

For `CCCCOc1nc(N)c2[nH]c(=O)n(Cc3ccc(CN4CCC(CCNC(=O)CCC(CCC(=O)NCCC5CCN(Cc6ccc(Cn7c(=O)[nH]c8c(N)nc(OCCCC)nc87)cc6)CC5)NC(=O)CON)CC4)cc3)c2n1` [AXC-889, N1,N7-bis(2-(1-(4-((6-amino-2-butoxy-8-oxo-7H-purin-9(8H)-yl)methyl)benzyl)piperidin-4-yl)ethyl)-4-(2-(aminooxy)acetamido)heptanediamide], under setting [1], the EC50 amounted to 0.697 µM.

`CCCCOc1nc(N)c2[nH]c(=O)n(Cc3ccc(CN4CCC(CCNC(=O)C(C)C)CC4)cc3)c2n1` [AXC-890, N-(2-(1-(4-((6-amino-2-butoxy-8-oxo-7H-purin-9(8H)-yl)methyl)benzyl)piperidin-4-yl)ethyl)isobutyramide]: under setting [2], the EC50 stood at 0.0153 µM. Turning to `CCCCOc1nc(N)c2[nH]c(=O)n(Cc3ccc(CN4CCC(CCNC(=O)[C@H](C)N)CC4)cc3)c2n1` [AXC-891, (S)-2-amino-N-(2-(1-(4-((6-amino-2-butoxy-8-oxo-7H-purin-9(8H)-yl)methyl)benzyl)piperidin-4-yl)ethyl)propanamide], the EC50 (Table 13, TLR7, read-out: EC50) was determined as 0.047 µM.

With `CCCCOc1nc(N)c2[nH]c(=O)n(Cc3ccc(CN4CCC(CCNC(=O)[C@@H](N)CCCNC(=N)N)CC4)cc3)c2n1` [AXC-892, (S)-2-amino-N-(2-(1-(4-((6-amino-2-butoxy-8-oxo-7H-purin-9(8H)-yl)methyl)benzyl)piperidin-4-yl)ethyl)-5-guanidinopentanamide], under “Table 13, TLR7, read-out: EC50”, the EC50 came to 0.073 µM. Same read-out and setting: with `CCCCOc1nc(N)c2[nH]c(=O)n(Cc3ccc(CN4CCC(CCN(CC(C)C)C(=O)CCOCCON)CC4)cc3)c2n1` [AXC-893, N-(2-(1-(4-((6-amino-2-butoxy-8-oxo-7H-purin-9(8H)-yl)methyl)benzyl)piperidin-4-yl)ethyl)-3-(2-(aminooxy)ethoxy)-N-isobutylpropanamide] the figure was 3.12 µM. On to `CCCCOc1nc(N)c2[nH]c(=O)n(Cc3ccc(CN4CCCCC4)cc3)c2n1` [AXC-894, 6-amino-2-butoxy-9-(4-(piperidin-1-ylmethyl)benzyl)-7H-purin-8(9H)-one], for which the EC50 is, setting by setting: (Table 13, TLR7, read-out: EC50) 1.67 µM; (Table 14, read-out: TLR7 EC50) 0.0021 µM; (text to Table 14, TLR7, read-out: EC50) below 0.01 µM. As for `CCCCOc1nc(N)c2[nH]c(=O)n(Cc3ccc(CN4CCC(CCNC(=O)c5ccc(N)c(OC)c5)CC4)cc3)c2n1` [AXC-895, 4-amino-N-(2-(1-(4-((6-amino-2-butoxy-8-oxo-7H-purin-9(8H)-yl)methyl)benzyl)piperidin-4-yl)ethyl)-3-methoxybenzamide], the “TLR7 activity (comparison in words)” value is on record as “highest potency among different payloads tested”. The EC50 (Table 13, TLR7, read-out: EC50) is 0.011 µM. In the case of `CCCCOc1nc(N)c2[nH]c(=O)n(Cc3ccc(CN4CCC(CCNC(=O)[C@H](C)NC(=O)CON)CC4)cc3)c2n1` [AXC-896, (S)—N-(2-(1-(4-((6-amino-2-butoxy-8-oxo-7H-purin-9(8H)-yl)methyl)benzyl)piperidin-4-yl)ethyl)-2-(2-(aminooxy)acetamido)propanamide], under “Table 13, TLR7, read-out: EC50”, the EC50 was 0.325 µM. Same read-out and setting: with `CCCCOc1nc(N)c2[nH]c(=O)n(Cc3ccc(CN4CCC(CCNC(=O)[C@H](CCCNC(=N)N)NC(=O)CON)CC4)cc3)c2n1` [AXC-897, (S)—N-(2-(1-(4-((6-amino-2-butoxy-8-oxo-7H-purin-9(8H)-yl)methyl)benzyl)piperidin-4-yl)ethyl)-2-(2-(aminooxy)acetamido)-5-guanidinopentanamide] the figure was 0.33 µM; with `CCCCOc1nc(N)c2[nH]c(=O)n(Cc3ccc(CN4CCC(C5CCNCC5)CC4)cc3)c2n1` [AXC-898, 9-(4-(4,4′-bipiperidin-1-ylmethyl)benzyl)-6-amino-2-butoxy-7H-purin-8(9H)-oneone], 0.05 µM. On to `CCCCOc1cc2c([nH]c(=O)n2Cc2ccc(CN3CCC(CCNC(=O)c4ccc(N)cc4)CC3)cc2)c(N)n1` [AXC-905, 4-amino-N-(2-(1-(4-((4-amino-6-butoxy-2-oxo-2,3-dihydro-1H-imidazo[4,5-c]pyridin-1-yl)methyl)benzyl)piperidin-4-yl)ethyl)benzamidebenzamide], for which, for the setting “Table 14, read-out: TLR7 EC50”, the EC50 stood at 0.0026 µM. Still for that read-out and setting: next, `CCCCOc1nc(N)c2[nH]c(=O)n(Cc3ccc(CN4CCC(c5ccc(N)cc5)CC4)cc3)c2n1` [AXC-908, 6-amino-9-(4-((4-(4-aminophenyl)piperidin-1-yl)methyl)benzyl)-2-butoxy-7H-purin-8(9H)-one]: 0.0115 µM; `CCCCOc1nc(N)c2[nH]c(=O)n(Cc3ccc(CN4CCC(C5CCN(C(=O)CCOCCON)CC5)CC4)cc3)c2n1` [AXC-909, 6-amino-9-(4-((1′-(3-(2-(aminooxy)ethoxy)propanoyl)-4,4′-bipiperidin-1-yl)methyl)benzyl)-2-butoxy-7H-purin-8(9H)-one]: 0.0719 µM.

Consider `CCCCc1nc2c(N)nc3ccccc3c2n1CCCCNC(=O)CON` [AXC-910, reference compound], for which the EC50 (Table 14, read-out: TLR7 EC50) was 2.59 µM. With `CCCCOc1nc(N)c2[nH]c(=O)n(Cc3ccc(CN4CCC(CCNC(=O)[C@@H](N)CCCCNC(=O)CON)CC4)cc3)c2n1` [AXC-913, (S)-2-amino-N-(2-(1-(4-((6-amino-2-butoxy-8-oxo-7,8-dihydro-9H-purin-9-yl)methyl)benzyl)piperidin-4-yl)ethyl)-6-(2-(aminooxy)acetamido)hexanamide], under setting [3], the EC50 is 0.0296 µM. On the same count and under the same terms, next, `CCCCOc1nc(N)c2[nH]c(=O)n(Cc3ccc(CN4CCC(CCNC(=O)[C@H](CCCCNC(=O)CON)NC(=O)[C@H](C)NC(=O)[C@@H](N)C(C)C)CC4)cc3)c2n1` [AXC-923, (S)—N-(2-(1-(4-((6-amino-2-butoxy-8-oxo-7,8-dihydro-9H-purin-9-yl)methyl)benzyl)piperidin-4-yl)ethyl)-2-((S)-2-((S)-2-amino-3-methylbutanamido)propanamido)-6-(2-(aminooxy)acetamido)hexanamide]: 0.434 µM; `CCCCOc1nc(N)c2[nH]c(=O)n(Cc3ccc(CN4CCC(CCNC(=O)[C@H](CCCCNC(=O)CON)NC(=O)CCOCCOCCOCCOCCOCCOCCOCCOCCOCCOCCOCCOCCOCCOCCOCCOCCOCCOCCOCCOCCOCCOCCOCCOC)CC4)cc3)c2n1` [AXC-924, (S)—N-(2-(1-(4-((6-amino-2-butoxy-8-oxo-7,8-dihydro-9H-purin-9-yl)methyl)benzyl)piperidin-4-yl)ethyl)-6-(2-(aminooxy)acetamido)-2-PEG24-amidohexanamide]: 0.398 µM.

In general, EC50 refers to the concentration giving half of the maximal effect.
